According to patent US5656726A, “Peptide inhibitors of urokinase receptor activity” (Chiron Corporation, priority 1995, dated 1997):
Like-named read-outs stand apart in the source and are kept apart here. Ends that are not written are not given here. Peptide text beside a SMILES is read from it.

Experiments:
U937 cells = details: Rabbani et al.; cited from earlier work
[1] = tested on: SaOS-2 osteosarcoma cell line; details: Rabbani et al.; cited from earlier work
uPAR = uPAR (Homo sapiens, UniProt Q03405); details: Appella et al., cited from earlier work
Chain of uPAR (Q03405 23-335): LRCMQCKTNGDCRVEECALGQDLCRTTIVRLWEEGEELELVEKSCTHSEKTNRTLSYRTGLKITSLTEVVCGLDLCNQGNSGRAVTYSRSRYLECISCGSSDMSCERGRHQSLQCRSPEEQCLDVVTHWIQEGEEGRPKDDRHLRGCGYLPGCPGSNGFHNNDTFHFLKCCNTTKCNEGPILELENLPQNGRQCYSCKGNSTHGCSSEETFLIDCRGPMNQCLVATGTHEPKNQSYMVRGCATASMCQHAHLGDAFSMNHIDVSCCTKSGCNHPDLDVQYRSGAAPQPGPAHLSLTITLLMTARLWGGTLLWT

[2] = biological target: T1, recombinant human urokinase receptor (truncated, soluble; suPAR) (Homo sapiens, UniProt Q03405); experiment: 125I-ATF competition binding on immobilized soluble recombinant human urokinase receptor; details: synthesized peptide, read-out: Affinity
T1 construct: expressed as a truncated, soluble molecule as described previously for mouse L-cells (Masucci et al., J Biol Chem (1991) 266:8655); made in house
T1 sequence (Q03405 23-299 limits assumed): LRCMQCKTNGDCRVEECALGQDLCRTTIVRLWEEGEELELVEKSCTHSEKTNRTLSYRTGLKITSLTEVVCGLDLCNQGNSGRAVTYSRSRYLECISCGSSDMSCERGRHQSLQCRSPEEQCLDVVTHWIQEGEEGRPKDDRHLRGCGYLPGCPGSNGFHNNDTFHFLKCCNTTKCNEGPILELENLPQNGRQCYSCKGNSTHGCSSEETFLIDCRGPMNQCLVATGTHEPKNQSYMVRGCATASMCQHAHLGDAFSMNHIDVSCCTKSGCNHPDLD

[3] = biological target: T2, full length huPAR ("fluPAR") (Homo sapiens, UniProt Q03405); experiment: Recovery of phage on Sf9 cells expressing full length huPAR; type: binding
T2 construct: Sf9 cells expressing full length huPAR ("fluPAR", day 2 post infection); expressed in transfected cells; host or cells: Sf9 insect cells, infected (day 2 post infection)
T2 sequence (Q03405 23-335): as the sequence (Q03405 23-335) above
Description: 1.) 15 mer phage (2.5×10^10) prepared as described above were selected by coincubation with 10^6 Sf9 cells expressing full length huPAR ("fluPAR", day 2 post infection) at room temperature for 60 minutes in Grace's medium with 2% nonfat milk. Binding phage were eluted with 6M urea (pH 2.2), the pH neutralized by adding 2M Tris-HCl, and assayed. The yield of binding phage was 0.0013% (3.3×10^5 pfu). The phage were amplified on solid agar plates as plaques, eluted with Tris-buffered saline, and precipitated with polyethylene glycol.
(§1) 3.) The phage selected in round 2 were reselected on SI9 cells expressing fluPAR (day 2 post-infection) as described for round 1 (2.8×10^10 phage on 10^6 St9 cells). The yield of binding phage from this round was 5.40% (1.5×10^9 pfu), indicating a substantial enrichment in binding phage. Sample phage from the urea eluate were cloned, and their DNAs isolated and sequenced. Binding was assayed against Sf9 cells expressing fluPAR, and Sf9 cells expressing substance P receptor ("SPR," as a control).

[4] = biological target: T3, substance P receptor ("SPR") (Homo sapiens, UniProt P25103); experiment: Recovery of phage on Sf9 cells expressing substance P receptor (control); type: binding; details: phage displaying the peptide
T3 construct: expressed in transfected cells; host or cells: Sf9 insect cells
T3 sequence (P25103 whole entry, species assumed): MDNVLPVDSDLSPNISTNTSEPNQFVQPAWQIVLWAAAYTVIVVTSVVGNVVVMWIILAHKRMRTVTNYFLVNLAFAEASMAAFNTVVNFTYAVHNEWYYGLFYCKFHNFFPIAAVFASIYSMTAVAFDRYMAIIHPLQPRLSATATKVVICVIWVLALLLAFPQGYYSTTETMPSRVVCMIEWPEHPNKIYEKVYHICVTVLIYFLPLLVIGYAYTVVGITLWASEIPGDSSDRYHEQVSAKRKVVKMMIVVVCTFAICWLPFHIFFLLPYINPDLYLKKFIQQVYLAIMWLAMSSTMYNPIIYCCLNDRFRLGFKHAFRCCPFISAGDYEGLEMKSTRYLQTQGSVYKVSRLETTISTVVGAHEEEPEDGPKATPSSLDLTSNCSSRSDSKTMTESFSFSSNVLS
Description: as §1

[5] = corrected to 100 pM ATF, 0.3 μg/mL suPAR conditions, corrections about 3 × from previous assay conditions
[6] = assay performed at 100 pM ATF, 0.3 μg/mL suPAR in 200 μL (starred values)

fucosylated EGF-like domain: fucosylated EGF-like domain (uPA4-43, produced by cleavage from pro-uPA) (LHQVPSNCDCLNGGT(fucose)CVSNKYFSNIHWCNCPKKFGGQHCE; not fully specified; cysteine pairing not given here; UniProt P00749 24-63, looked up, fragment)
mitogenic activity (U937 cells): Neither fucosylated nor non-fucosylated EGF-like domain was mitogenic
mitogenic activity [1]: mitogenic

uPA12-32: critical domain alone, residues 12-32 of the EGF-like domain of uPA (DCLNGGTCVSNKYFSNIHWCN; UniProt P00749 32-52, looked up, fragment)
Kd (uPAR; J. Biol Chem (1987), read-out: affinity for uPAR): 0.04 µM
affinity relative to intact ATF (fold less) (uPAR): about 100 fold

CC[C@H](C)[C@H](NC(=O)[C@H](CO)NC(=O)[C@@H](NC(=O)[C@H](CC(C)C)NC(=O)[C@@H](NC(=O)[C@@H]1CCCN1C(=O)[C@H](CC(C)C)NC(=O)[C@H](CO)NC(=O)[C@H](CCC(=O)O)NC(=O)[C@H](C)N)[C@@H](C)O)[C@@H](C)O)C(=O)N[C@@H](CC(C)C)C(=O)N[C@@H](Cc1c[nH]c2ccccc12)C(=O)NCC(=O)N[C@@H](CCCCN)C(=O)N[C@@H](CCC(=O)O)C(=O)N[C@@H](CO)C(=O)N[C@H](C(N)=O)C(C)C (H-AESLPTLTSILWGKESV-NH2)
Kd [2, 5]: 7 µM

CC(C)C[C@H](NC(=O)[C@H](CO)NC(=O)[C@H](CC(C)C)NC(=O)[C@@H]1CCCN1C(=O)[C@H](CCC(=O)O)NC(=O)[C@H](C)N)C(=O)N[C@@H](Cc1ccc(O)cc1)C(=O)N[C@@H](CCC(N)=O)C(=O)N[C@@H](CCCCN)C(=O)N[C@@H](CCCCN)C(=O)N[C@H](C(=O)N[C@@H](CC(C)C)C(=O)N[C@@H](CCCNC(=N)N)C(=O)N[C@@H](Cc1c[nH]cn1)C(=O)N[C@@H](Cc1ccccc1)C(=O)N[C@@H](C)C(=O)N[C@@H](CC(N)=O)C(N)=O)[C@@H](C)O (H-AEPLSLYQKKTLRHFAN-NH2)
Kd [2, 5]: > 50 µM

CC[C@H](C)[C@H](NC(=O)[C@H](Cc1c[nH]cn1)NC(=O)[C@H](CCCCN)NC(=O)[C@H](CC(=O)O)NC(=O)[C@H](Cc1c[nH]cn1)NC(=O)[C@H](Cc1c[nH]c2ccccc12)NC(=O)[C@H](CC(C)C)NC(=O)[C@H](CC(=O)O)NC(=O)[C@H](CCSC)NC(=O)[C@H](Cc1ccccc1)NC(=O)[C@H](CC(C)C)NC(=O)[C@@H](NC(=O)[C@H](CCC(=O)O)NC(=O)[C@H](C)N)[C@@H](C)O)C(=O)N[C@@H](CC(C)C)C(=O)N[C@@H](CC(C)C)C(=O)N[C@H](C(N)=O)[C@@H](C)O (H-AETLFMDLWHDKHILLT-NH2)
Kd [2, 6]: 7 µM

CSCC[C@H](NC(=O)[C@H](CO)NC(=O)[C@@H]1CCCN1C(=O)[C@H](Cc1c[nH]c2ccccc12)NC(=O)[C@H](C)NC(=O)[C@H](Cc1ccc(O)cc1)NC(=O)[C@H](CCCNC(=N)N)NC(=O)[C@@H](NC(=O)[C@H](Cc1c[nH]c2ccccc12)NC(=O)[C@H](CC(C)C)NC(=O)[C@H](CO)NC(=O)[C@H](CO)NC(=O)[C@H](CCC(=O)O)NC(=O)[C@H](C)N)[C@@H](C)O)C(=O)N1CCC[C@H]1C(=O)N[C@@H](CO)C(=O)N[C@@H](Cc1ccc(O)cc1)C(N)=O (H-AESSLWTRYAWPSMPSY-NH2)
Kd [2, 5]: 0.35 µM

CC[C@H](C)[C@H](NC(=O)[C@@H](NC(=O)[C@H](CCC(N)=O)NC(=O)[C@@H]1CCCN1C(=O)[C@H](CCC(=O)O)NC(=O)[C@@H]1CCCN1C(=O)[C@H](CC(C)C)NC(=O)[C@H](Cc1c[nH]cn1)NC(=O)[C@H](CC(C)C)NC(=O)[C@H](CC(N)=O)NC(=O)[C@H](Cc1ccc(O)cc1)NC(=O)[C@H](Cc1ccccc1)NC(=O)[C@H](CO)NC(=O)[C@H](Cc1c[nH]c2ccccc12)NC(=O)[C@H](CCC(=O)O)NC(=O)[C@H](C)N)[C@@H](C)O)C(=O)N[C@@H](Cc1ccccc1)C(N)=O (H-AEWSFYNLHLPEPQTIF-NH2)
Kd [2, 5]: 5 µM

CC[C@H](C)[C@H](NC(=O)[C@H](Cc1c[nH]c2ccccc12)NC(=O)[C@H](CCC(=O)O)NC(=O)[C@H](C)N)C(=O)N[C@H](C(=O)N[C@@H](CO)C(=O)N[C@@H](CO)C(=O)N1CCC[C@H]1C(=O)N1CCC[C@H]1C(=O)N[C@@H](CC(C)C)C(=O)N[C@H](C(=O)N[C@@H](CCC(N)=O)C(=O)N[C@@H](Cc1ccc(O)cc1)C(=O)N[C@@H](CC(C)C)C(=O)N[C@@H](Cc1c[nH]c2ccccc12)C(=O)NCC(=O)N[C@@H](Cc1ccccc1)C(N)=O)[C@@H](C)O)[C@@H](C)O (H-AEWITSSPPLTQYLWGF-NH2)
Kd [2, 5]: 10 µM

CC(C)C[C@H](NC(=O)[C@@H](NC(=O)CNC(=O)[C@@H](NC(=O)[C@H](CCC(N)=O)NC(=O)[C@H](CO)NC(=O)[C@H](CCC(=O)O)NC(=O)[C@H](C)N)[C@@H](C)O)[C@@H](C)O)C(=O)N[C@@H](CC(N)=O)C(=O)N[C@H](C(=O)N[C@@H](CC(C)C)C(=O)N[C@@H](Cc1ccccc1)C(=O)N[C@@H](Cc1c[nH]c2ccccc12)C(=O)N[C@@H](CC(N)=O)C(=O)N[C@H](C(=O)N[C@@H](CC(C)C)C(=O)N[C@@H](CCCNC(=N)N)C(N)=O)[C@@H](C)O)[C@@H](C)O (H-AESQTGTLNTLFWNTLR-NH2)
Kd [2, 5]: 7 µM

AECLNGGTAVSNKYFSNIHWCN [Positive control, residues 13-32 of the EGFlike domain of urokinase (not selected from library)]
% Recovery huPAR ([3]; phage displaying the peptide, Sf9 cells expressing fluPAR): 6.8%
Specificity (uPAR/SPR) ([3]; ratio of % recovery huPAR to SPR): 857
% Recovery SPR [4]: 0.008%

CSCC[C@H](NC(=O)[C@@H]1CCCN1C(=O)[C@H](CCC(=O)O)NC(=O)[C@H](C)N)C(=O)N1CCC[C@H]1C(=O)N[C@@H](Cc1c[nH]cn1)C(=O)N[C@@H](CO)C(=O)N[C@@H](CC(C)C)C(=O)N[C@@H](CC(N)=O)C(=O)N[C@@H](Cc1ccccc1)C(=O)N[C@@H](CO)C(=O)N[C@@H](CCC(N)=O)C(=O)N[C@@H](Cc1ccc(O)cc1)C(=O)N[C@@H](CC(C)C)C(=O)N[C@@H](Cc1c[nH]c2ccccc12)C(=O)N[C@@H](Cc1ccc(O)cc1)C(=O)N[C@H](C(N)=O)[C@@H](C)O (H-AEPMPHSLNFSQYLWYT-NH2)
Kd [2, 6]: 0.015 µM
